14 molecules from ChEMBL document CHEMBL1201862, “PubChem BioAssay data set” (2004) can be followed below.

In general, GI50 refers to the concentration that inhibits growth by half.

The structures appear in SMILES notation.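 Tested at 5 concentrations; 48 h exposure; 96-well plates; endpoints linearly interpolated, else capped at highest concentration. GI50 is the concentration that inhibits growth by half.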 Active and inactive are the calls of the source. Rule as the data show it: active = GI50 up to about 1.1 µM and inactive = higher.

Common to all, as to experiment: DTP human tumour cell line panel, 48 h
In test [1] the test system is HT-29.
Test [2] has as its system IGROV-1.
Test [3] relates to RPMI-8226.
In test [4] the test system is HCT-15.
In test [5] the test system is CCRF-CEM.
For test [6], the system named is A498.
In test [7] the test system is SNB-19.
The subject of test [8] is SN12C.
The subject of test [9] is K562.
In test [10] the test system is A549.
Test [11] has as its system SW-620.
The subject of test [12] is LOX IMVI.
The subject of test [13] is HCC 2998.
Test [14] has as its system HOP-62.
In test [15] the test system is NCI-H226.
Test [16] deals with SR.

Turning to `C[C@]12CC/C(=N\OC(=O)Nc3ccccc3)C=C1CC[C@@H]1C2CC[C@@]2(C)C1CC[C@@H]2OC(=O)Nc1ccccc1` (stereo partly specified), the GI50 is > 100 µM (inactive) in test [1]; > 100 µM (inactive) in test [2]; 15.4 µM (inactive) in [3]; 3.3 µM in test [4]; > 100 µM (inactive) in test [5]; 92.9 µM (inactive) in test [6]. In addition, the GI50 in test [7] is > 100 µM (inactive); in [8], 11.7 µM (inactive); in test [9], 17.7 µM (inactive); in test [10], > 100 µM (inactive); in [11], > 100 µM (inactive); in [12] it was > 100 µM (inactive). Also, the GI50 in test [13] was > 100 µM (inactive).
For `O=C(CC1(O)C(=O)Nc2ccccc21)c1ccccc1O` (stereo unspecified), the GI50 is > 100 µM (inactive) in [1]; > 100 µM (inactive) in [2]; > 100 µM (inactive) in test [3]; greater than 100 µM in test [4]; > 100 µM (inactive) in [14]; > 100 µM (inactive) in test [15]. In addition, the GI50 in test [6], in [7], in [8], in test [9], in test [10] and in test [11] was > 100 µM (inactive) throughout. Moreover, in [12], the GI50 was > 100 µM (inactive).
`CC(C)(C)CC(C)(C)c1cc2c(O)c(c1)Cc1cc(C(C)(C)CC(C)(C)C)cc(c1O)Cc1cc(C(C)(C)CC(C)(C)C)cc(c1O)Cc1cc(C(C)(C)CC(C)(C)C)cc(c1O)Cc1cc(C(C)(C)CC(C)(C)C)cc(c1O)Cc1cc(C(C)(C)CC(C)(C)C)cc(c1O)Cc1cc(C(C)(C)CC(C)(C)C)cc(c1O)Cc1cc(C(C)(C)CC(C)(C)C)cc(c1O)C2`: the GI50 in test [1] is > 100 µM (inactive); in test [2], > 100 µM (inactive); in test [3], > 100 µM (inactive); in test [4], greater than 100 µM; in test [14] it was > 100 µM (inactive); in test [5], > 100 µM (inactive). Also, the GI50 in test [7], in [8], in test [9], in [10], in [11] and in test [13] was > 100 µM (inactive) each time.
For `COc1cc(Nc2nc3cc(C)ccc3nc2-c2ccccc2)cc(OC)c1OC`, the GI50 in test [1] is 14.8 µM (inactive); in test [2], 63.8 µM (inactive); in test [4] it was 15.5 µM; in [5], 29.8 µM (inactive); in test [16], 16.2 µM (inactive); in [6] it was 45.6 µM (inactive). Moreover, the GI50 is 57.4 µM (inactive) in test [7]; 28.7 µM (inactive) in [8]; 23.4 µM (inactive) in test [9]; 29.8 µM (inactive) in test [10]; 58.1 µM (inactive) in test [11]; 27.2 µM (inactive) in test [12]. For the same molecule, in test [13], the GI50 was 12.3 µM (inactive).
On to `Cc1cc(N(CCC#N)CCC#N)ccc1/C=N\c1ccc(C(=O)NN2C(=O)/C(=C/c3ccc(N(CCC#N)CCC#N)cc3)N=C2c2cc([N+](=O)[O-])ccc2Cl)cc1`, for which the GI50 in test [1] was 80.5 µM (inactive); in [2], > 100 µM (inactive); in test [3] it was > 100 µM (inactive); in test [4] it was 51.8 µM; in test [14], 95.1 µM (inactive); in test [5], 65.6 µM (inactive). Moreover, the GI50 in test [15] was > 100 µM (inactive); in test [6], > 100 µM (inactive); in test [7], > 100 µM (inactive); in [8], > 100 µM (inactive); in test [9] it was 33 µM (inactive); in [10], > 100 µM (inactive). Also, the GI50 in test [11], in test [12] and in test [13] was > 100 µM (inactive) in each case.
For the molecule `O/N=C1/C(=C/c2ccccc2)CCCC1C(NO)c1ccccc1` (stereo unspecified), the GI50 was > 100 µM (inactive) in [1]; > 100 µM (inactive) in test [2]; 35.5 µM (inactive) in test [3]; greater than 100 µM in test [4]; > 100 µM (inactive) in [6]; 91.4 µM (inactive) in test [7]. Also, the GI50 in test [8] was 69.8 µM (inactive); in test [9] it was 3.31 µM (inactive); in [10], 40.1 µM (inactive); in [11], > 100 µM (inactive); in test [12] it was > 100 µM (inactive).
As for `Cc1nc2c(n1C(C)(C)C)C(=O)c1ccccc1C2=O`, the GI50 was 44.1 µM (inactive) in [1]; 96.6 µM (inactive) in [2]; 56.6 µM in [4]; > 100 µM (inactive) in test [14]; 73.8 µM (inactive) in test [5]; 45 µM (inactive) in [16]. Moreover, the GI50 in [15] was 67.9 µM (inactive); in test [7] it was > 100 µM (inactive); in test [8] it was 50.5 µM (inactive); in test [9], 49.7 µM (inactive); in test [10], 92 µM (inactive); in test [11], > 100 µM (inactive). The results for the GI50 in [12] and in test [13] were 41.5 µM (inactive) and > 100 µM (inactive), respectively.
As for `O=C(OCc1ccccc1)N1N=NC2C1C1CC(OCc3ccccc3)(OCc3ccccc3)C2O1` (stereo unspecified), the GI50 in [1] was > 100 µM (inactive); in test [2], > 100 µM (inactive); in [3] it was > 100 µM (inactive); in test [4] it was greater than 100 µM; in [14], > 100 µM (inactive); in [5] it was > 100 µM (inactive). The GI50 in [15], in test [6], in test [8], in test [9], in test [10] and in test [11] was > 100 µM (inactive) in each case. For the same molecule, the GI50 in test [12] and in test [13] was > 100 µM (inactive) in each case.
Turning to `O=C1c2ccccc2C(=O)c2c1ccc1c3ccccc3n(Cc3ccccc3)c21`, the GI50 in test [1] was > 100 µM (inactive); in test [2], > 100 µM (inactive); in [3], > 100 µM (inactive); in test [4], greater than 100 µM; in test [14] it was > 100 µM (inactive); in test [5], > 100 µM (inactive). The GI50 was > 100 µM (inactive) in test [16]; 54.6 µM (inactive) in [15]; > 100 µM (inactive) in [8]; > 100 µM (inactive) in test [9]; > 100 µM (inactive) in [10]; > 100 µM (inactive) in test [11]. The GI50 in test [12] is > 100 µM (inactive).
As for `O=C(c1cc(=O)c2ccc(O)cc2o1)c1ccc(Cl)cc1Cl`, the GI50 in test [1] is 36.2 µM (inactive); in test [2] it was 17.7 µM (inactive); in [3], 9.66 µM (inactive); in [4], 4.63 µM; in test [14] it was 8.18 µM (inactive); in test [5], 7.35 µM (inactive). Besides, the GI50 in test [15] was 26.7 µM (inactive); in test [6], 57.3 µM (inactive); in test [7], 49.1 µM (inactive); in test [8], 17.2 µM (inactive); in [9], 0.547 µM (active); in test [10] it was > 30.8 µM (inactive). In addition, the results for the GI50 in [11], in [12] and in test [13] were 12.2 µM (inactive), 3.15 µM (inactive) and 9.75 µM (inactive), respectively.
As to `COc1ccc(C)cc1-c1cc(Sc2ccccc2)c(-c2cc(C)ccc2OC)o1`, the GI50 is > 31.6 µM (inactive) in test [1]; > 31.6 µM (inactive) in test [2]; > 31.6 µM (inactive) in test [3]; greater than 31.6 µM in [4]; > 31.6 µM (inactive) in test [14]; > 31.6 µM (inactive) in test [5]. In addition, the GI50 in test [15], in test [6], in test [7], in [8], in test [9] and in test [10] was > 31.6 µM (inactive) each time. For the same molecule, the results for the GI50 in [11], in test [12] and in [13] were > 29.6 µM (inactive), > 100 µM (inactive) and > 31.6 µM (inactive), respectively.
Regarding `N#C/C(=C\c1cccc(O)c1O)C(N)=O`, the GI50 is 58.5 µM (inactive) in test [1]; 93.1 µM (inactive) in test [2]; 18.3 µM (inactive) in test [3]; 57.8 µM in test [4]; 68.9 µM (inactive) in test [14]; 14.1 µM (inactive) in [5]. In addition, the GI50 in test [15] is 25.3 µM (inactive); in test [6], 74.3 µM (inactive); in [7], 57.5 µM (inactive); in test [8], 45.6 µM (inactive); in [9], 38.6 µM (inactive); in test [10], 65.3 µM (inactive). The figures for the GI50 in test [11] and in test [13] were 50.2 µM (inactive) and 20.3 µM (inactive), respectively.
`CC1(Sc2ccccc2)CN(Cc2ccccc2)C1=O` (stereo unspecified): the GI50 in test [1] is > 100 µM (inactive); in test [2], > 100 µM (inactive); in test [3], 57.3 µM (inactive); in test [4], 75.2 µM; in test [14], > 100 µM (inactive); in test [5], > 100 µM (inactive). Besides, the GI50 in [15] is > 100 µM (inactive); in test [6] it was > 100 µM (inactive); in test [7], > 100 µM (inactive); in [8], > 100 µM (inactive); in test [9] it was 77.8 µM (inactive); in test [10], > 100 µM (inactive). Besides, the GI50 in [11], in test [12] and in test [13] was > 100 µM (inactive) in each case.
As to `COc1cc2c(cc1OC)-c1c(cnn1C1OC(COC(C)=O)C(OC(C)=O)C(OC(C)=O)C1OC(C)=O)CC2` (stereo unspecified), the GI50 was > 100 µM (inactive) in [1]; > 100 µM (inactive) in [2]; > 42.8 µM (inactive) in test [3]; greater than 100 µM in [4]; > 100 µM (inactive) in test [14]; 28.6 µM (inactive) in [5]. Also, the GI50 in [16] was 10.5 µM (inactive); in test [15], > 100 µM (inactive); in test [6], > 100 µM (inactive); in test [7], > 100 µM (inactive); in test [9], 33 µM (inactive); in [10], > 100 µM (inactive). The GI50 was > 60.7 µM (inactive) in test [11] and > 100 µM (inactive) in test [12].
